Data reported in patent US20250000881A1, “TREATMENT OF TREATMENT RESISTANT […] PSILOCYBIN” (COMPASS […], priority 2021, published 2025).

Key:
Type in all cases: in vivo, human
[1] = system: adult subjects with TRD; experiment: Phase 2b trial in TRD: Digit Symbol Substitution Test (DSST); details: 25 mg vs 1 mg groups, week 3
Description: (§1) Other objectives were to evaluate the effects of psilocybin on quality of life and wellbeing, functioning and associated disability, cognitive function, and anxiety compared to 1 mg psilocybin on: • (a) Quality of life in subject EuroQoL (EQ)-5 dimension-3 level scale (EQ-5D-3L) score change from Baseline to week 3. This will also be assessed at week 12. This assessment was not mandatory. • (b) Quality of life in caregiver EQ-5D-3L score change from Baseline to week 3. This was assessed at week 12. • (c) Functioning and associated disability in the Sheehan Disability Scale (SDS) score change from Baseline to week 3. This was also assessed at week 12. • (d) Cognitive function as measured by the Digit Symbol Substitution Test (DSST) score change from baseline to week 3. This was assessed at day 1 and week 12. • (e) Level of anxiety as measured using the change in Generalised Anxiety Disorder 7 item Scale (GAD-7) total score change from baseline to week 3. This was assessed at week 12. • (f) Subject determined level of depression as measured using the change in Quick Inventory of Depressive Symptomatology Self-Rated (QIDS-SR-16) total score from Baseline to week 3. […] This was assessed at week 12. • (h) To evaluate the impact of different psilocybin doses on real life functional activity estimated from passive data streams collected on a mobile app on subjects' mobile phones. […]

[2] = system: adult subjects with TRD; experiment: Phase 2b trial in TRD: QIDS-SR-16 self-reported depression; details: 25 mg vs 1 mg group, week 3
Description: as §1

[3] = system: adult subjects with TRD; experiment: Phase 2b trial in TRD: Work and Social Adjustment Scale (WSAS); details: 25 mg vs 1 mg, week 3
Description: as §1

[4] = system: adult subjects with TRD; experiment: Phase 2b trial in TRD: Generalised Anxiety Disorder-7 item scale (GAD-7); details: 25 mg vs 1 mg group, week 3
Description: as §1

## CN(C)CCc1c[nH]c2cccc(OP(=O)(O)O)c12 [COMP360, psilocybin]
[1]
  DSST least squares mean treatment difference: 1.32
[2]
  QIDS-SR-16 total score, least squares mean treatment difference (95% confidence intervals): −2.78 (−4.62, −0.95)
[3]
  WSAS treatment difference: −5.11
[4]
  GAD-7 total score, least squares mean (95% confidence intervals) treatment difference: −1.79 (−3.35, −0.23)
